Reference: publication PMC12090182, “Repurposing of the RIPK1-Selective Benzo[1,4]oxazepin-4-one Scaffold for the Development of a Type III LIMK1/2 Inhibitor” (ACS Chemical Biology, 2025)
Read-outs that look alike come from different tables or passages of the source.

System: U2OS cells
Format: cell-based
Conditions: U2OS
How it was run: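 HEK293T and U2OS cells (DMEM) and MRC-9 fibroblasts (EMEM) exposed to compounds at 1 and 10 μM. Live-cell confocal imaging of cell shape and fluorescence before and at 12, 24 and 48 h. Normalized to 0.1% DMSO; biological duplicates with SEM.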

[1] = 1 µM, 0 h, biological replicate 1
[2] = 1 µM, 0 h, biological replicate 2
[3] = 1 µM, 12 h, biological replicate 1
[4] = 1 µM, 12 h, biological replicate 2
[5] = 1 µM, 24 h, biological replicate 1
[6] = 1 µM, 24 h, biological replicate 2
[7] = 1 µM, 48 h, biological replicate 1
[8] = 1 µM, 48 h, biological replicate 2
[9] = 10 µM, 0 h, biological replicate 1
[10] = 10 µM, 0 h, biological replicate 2
[11] = 10 µM, 12 h, biological replicate 1
[12] = 10 µM, 12 h, biological replicate 2
[13] = 10 µM, 24 h, biological replicate 1
[14] = 10 µM, 24 h, biological replicate 2
[15] = 10 µM, 48 h, biological replicate 1
[16] = 10 µM, 48 h, biological replicate 2

For `CC(C)C(=O)Nc1ncc(-c2cc(C(F)F)nn2-c2c(Cl)cccc2Cl)s1` [LIMKi3], the “Cell count normalized to cells treated with DMSO control” value (from here on “Cell count normalized to cells treated”) [1] was 1.067, the “Cell count per well” value [1] was 222 and the “Population Fragmented Nuclei (%)” value [1] was 50.47%. The “Population Healthy Nuclei (%)” value [1] was 44.34%, the “Population Pyknosed Nuclei (%)” value [1] was 5.19% and the “Population apoptotic cell (%)” value [1] was 81.82%. The “Population cell that influence microtubule strucutre (%)” value [1] was 3.19%, the “Population with increased mitochondrial mass (%)” value [1] was 4.26% and the “Population with membrane disruption (%)” value [1] was 8.51%. For the same compound, the “Cell count normalized to cells treated” value [2] was 1.097, the “Cell count per well” value [2] was 94 and the “Population Fragmented Nuclei (%)” value [2] was 27.47%. For the same compound, the “Population Healthy Nuclei (%)” value [2] was 63.74%, the “Population Pyknosed Nuclei (%)” value [2] was 8.79% and the “Population apoptotic cell (%)” value [2] was 100.00%. For the same compound, the “Population cell that influence microtubule strucutre (%)” value [2] was 5.17%, the “Population with increased mitochondrial mass (%)” value [2] was 1.72% and the “Population with membrane disruption (%)” value [2] was 5.17%. The “Cell count normalized to cells treated” value [3] was 0.9868, the “Cell count per well” value [3] was 261 and the “Population Fragmented Nuclei (%)” value [3] was 35.71%. The “Population Healthy Nuclei (%)” value [3] was 57.94%, the “Population Pyknosed Nuclei (%)” value [3] was 6.35% and the “Population apoptotic cell (%)” value [3] was 81.25%. The “Population cell that influence microtubule strucutre (%)” value [3] was 3.42%, the “Population with increased mitochondrial mass (%)” value [3] was 2.05% and the “Population with membrane disruption (%)” value [3] was 6.85%. For the same compound, the “Cell count normalized to cells treated” value [4] was 1.091, the “Cell count per well” value [4] was 129 and the “Population Fragmented Nuclei (%)” value [4] was 18.25%. For the same compound, the “Population Healthy Nuclei (%)” value [4] was 76.98%, the “Population Pyknosed Nuclei (%)” value [4] was 4.76% and the “Population apoptotic cell (%)” value [4] was 100.00%. For the same compound, the “Population cell that influence microtubule strucutre (%)” value [4] was 4.12%, the “Population with increased mitochondrial mass (%)” value [4] was 4.12% and the “Population with membrane disruption (%)” value [4] was 5.15%. For the same compound, the “Cell count normalized to cells treated” value [5] was 0.9303, the “Cell count per well” value [5] was 290 and the “Population Fragmented Nuclei (%)” value [5] was 30.77%. The “Population Healthy Nuclei (%)” value [5] was 62.24%, the “Population Pyknosed Nuclei (%)” value [5] was 6.99% and the “Population apoptotic cell (%)” value [5] was 80.00%. The “Population cell that influence microtubule strucutre (%)” value [5] was 2.25%, the “Population with increased mitochondrial mass (%)” value [5] was 3.37% and the “Population with membrane disruption (%)” value [5] was 5.06%. For the same compound, the “Cell count normalized to cells treated” value [6] was 1.125, the “Cell count per well” value [6] was 160 and the “Population Fragmented Nuclei (%)” value [6] was 21.52%. The “Population Healthy Nuclei (%)” value [6] was 67.72%, the “Population Pyknosed Nuclei (%)” value [6] was 10.76% and the “Population apoptotic cell (%)” value [6] was 70.59%. For the same compound, the “Population cell that influence microtubule strucutre (%)” value [6] was 1.87%, the “Population with increased mitochondrial mass (%)” value [6] was 2.80% and the “Population with membrane disruption (%)” value [6] was 4.67%. The “Cell count normalized to cells treated” value [7] was 0.8403, the “Cell count per well” value [7] was 374 and the “Population Fragmented Nuclei (%)” value [7] was 26.78%. For the same compound, the “Population Healthy Nuclei (%)” value [7] was 61.48%, the “Population Pyknosed Nuclei (%)” value [7] was 11.75% and the “Population apoptotic cell (%)” value [7] was 86.05%. For the same compound, the “Population cell that influence microtubule strucutre (%)” value [7] was 4.44%, the “Population with increased mitochondrial mass (%)” value [7] was 2.67% and the “Population with membrane disruption (%)” value [7] was 6.22%. The “Cell count normalized to cells treated” value [8] was 0.9779, the “Cell count per well” value [8] was 202 and the “Population Fragmented Nuclei (%)” value [8] was 17.50%. For the same compound, the “Population Healthy Nuclei (%)” value [8] was 70.50%, the “Population Pyknosed Nuclei (%)” value [8] was 12.00% and the “Population apoptotic cell (%)” value [8] was 87.50%. For the same compound, the “Population cell that influence microtubule strucutre (%)” value [8] was 4.26%, the “Population with increased mitochondrial mass (%)” value [8] was 2.13% and the “Population with membrane disruption (%)” value [8] was 6.38%. The “Cell count normalized to cells treated” value [9] was 1.081, the “Cell count per well” value [9] was 225 and the “Population Fragmented Nuclei (%)” value [9] was 43.12%. For the same compound, the “Population Healthy Nuclei (%)” value [9] was 50.46%, the “Population Pyknosed Nuclei (%)” value [9] was 6.42% and the “Population apoptotic cell (%)” value [9] was 78.57%. The “Population cell that influence microtubule strucutre (%)” value [9] was 4.55%, the “Population with increased mitochondrial mass (%)” value [9] was 3.64% and the “Population with membrane disruption (%)” value [9] was 7.27%. The “Cell count normalized to cells treated” value [10] was 1.132, the “Cell count per well” value [10] was 97 and the “Population Fragmented Nuclei (%)” value [10] was 17.53%. For the same compound, the “Population Healthy Nuclei (%)” value [10] was 71.13%, the “Population Pyknosed Nuclei (%)” value [10] was 11.34% and the “Population apoptotic cell (%)” value [10] was 90.91%. The “Population cell that influence microtubule strucutre (%)” value [10] was 5.80%, the “Population with increased mitochondrial mass (%)” value [10] was 10.14% and the “Population with membrane disruption (%)” value [10] was 5.80%. For the same compound, the “Cell count normalized to cells treated” value [11] was 0.8507, the “Cell count per well” value [11] was 225 and the “Population Fragmented Nuclei (%)” value [11] was 35.24%. For the same compound, the “Population Healthy Nuclei (%)” value [11] was 45.24%, the “Population Pyknosed Nuclei (%)” value [11] was 19.52% and the “Population apoptotic cell (%)” value [11] was 63.41%. The “Population cell that influence microtubule strucutre (%)” value [11] was 84.21%, the “Population with increased mitochondrial mass (%)” value [11] was 51.58% and the “Population with membrane disruption (%)” value [11] was 77.89%. The “Cell count normalized to cells treated” value [12] was 0.9469, the “Cell count per well” value [12] was 112 and the “Population Fragmented Nuclei (%)” value [12] was 12.15%. For the same compound, the “Population Healthy Nuclei (%)” value [12] was 68.22%, the “Population Pyknosed Nuclei (%)” value [12] was 19.63% and the “Population apoptotic cell (%)” value [12] was 57.14%. The “Population cell that influence microtubule strucutre (%)” value [12] was 86.30%, the “Population with increased mitochondrial mass (%)” value [12] was 68.49% and the “Population with membrane disruption (%)” value [12] was 67.12%. For the same compound, the “Cell count normalized to cells treated” value [13] was 0.7058, the “Cell count per well” value [13] was 220 and the “Population Fragmented Nuclei (%)” value [13] was 35.92%. The “Population Healthy Nuclei (%)” value [13] was 37.86%, the “Population Pyknosed Nuclei (%)” value [13] was 26.21% and the “Population apoptotic cell (%)” value [13] was 55.56%. For the same compound, the “Population cell that influence microtubule strucutre (%)” value [13] was 78.21%, the “Population with increased mitochondrial mass (%)” value [13] was 65.38% and the “Population with membrane disruption (%)” value [13] was 65.38%. For the same compound, the “Cell count normalized to cells treated” value [14] was 0.7383, the “Cell count per well” value [14] was 105 and the “Population Fragmented Nuclei (%)” value [14] was 11.11%. The “Population Healthy Nuclei (%)” value [14] was 58.59%, the “Population Pyknosed Nuclei (%)” value [14] was 30.30% and the “Population apoptotic cell (%)” value [14] was 60.00%. For the same compound, the “Population cell that influence microtubule strucutre (%)” value [14] was 75.86%, the “Population with increased mitochondrial mass (%)” value [14] was 65.52% and the “Population with membrane disruption (%)” value [14] was 53.45%. The “Cell count normalized to cells treated” value [15] was 0.528, the “Cell count per well” value [15] was 235 and the “Population Fragmented Nuclei (%)” value [15] was 37.96%. The “Population Healthy Nuclei (%)” value [15] was 28.70%, the “Population Pyknosed Nuclei (%)” value [15] was 33.33% and the “Population apoptotic cell (%)” value [15] was 68.06%. For the same compound, the “Population cell that influence microtubule strucutre (%)” value [15] was 77.42%, the “Population with increased mitochondrial mass (%)” value [15] was 54.84% and the “Population with membrane disruption (%)” value [15] was 80.65%. For the same compound, the “Cell count normalized to cells treated” value [16] was 0.6342, the “Cell count per well” value [16] was 131 and the “Population Fragmented Nuclei (%)” value [16] was 20.83%. The “Population Healthy Nuclei (%)” value [16] was 49.17%, the “Population Pyknosed Nuclei (%)” value [16] was 30.00% and the “Population apoptotic cell (%)” value [16] was 77.78%. The “Population cell that influence microtubule strucutre (%)” value [16] was 77.97%, the “Population with increased mitochondrial mass (%)” value [16] was 54.24% and the “Population with membrane disruption (%)” value [16] was 67.80%.
